Entries after “also recorded” stand apart in the source; their conditions may differ. Counter-ions that a name gives are not always drawn. Like-named read-outs stand apart in the source and are kept apart here.
Columns and labels:
cardiac tissue = experiment: static storage of cardiac tissue sections, TTC tissue viability stain; parameters: species or system Sprague Dawley (SD) rats; settings: 3 μM in DMEM; 24 and 48 hours cool static storage
Protocol: The following protocol was used to assess the ex vivo protective effects of the oCOm compounds in solid, non-perfused biological tissues. Male Sprague Dawley (SD) rats (280-310 g) were decapitated and the hearts rapidly excised. Hearts were cut into 1 mm thick sections and placed in 3 ml of DMEM in sterile 24 well tissue culture plates. Two tissues sections from each heart were immediately stained without storing, with 1% 2,3,5-Triphenyltetrazolium chloride (TTC) in glucose supplemented DMEM for 15 minutes at 37° C. with continuous shaking. Theses tissues represent the baseline tissue viability prior to storage. This staining technique requires active dehydrogenase enzymes to be present in order to convert TCC to a brick red formazan pigment. […] Tissues were then stained with TTC and fixed as above. One control tissue section was left unstained for comparison. All samples were sectioned transversely, photographed and staining intensity assessed qualitatively.

MDCK cells [1] = experiment: crystal violet cell adhesion (CVCA) cell toxicity assay; settings: Canis lupus familiaris, MDCK
Solubility in water = format: physicochemical
horse heart myoglobin = experiment: carboxymyoglobin spectrophotometric assay (CO binding to myoglobin); format: biochemical; settings: 25 to 400 μM; 5 to 90 minutes
Protocol: CO released from oCOm-19 and oCOm-21 was measured using an established carboxymyoglobin spectrophotometric assay,^39 adapted to a 96 well plate format to enable the simultaneous correction at all absorbance wavelengths arising from any potential interference from the donor compounds.^40 Freshly prepared horse heart myoglobin (66 μM) in a PBS solution (pH 7.4) was reduced with 10% w/v sodium dithionite and added to a 96 well plate. […] Absorption spectra (λ 500-600 nm) were run at ten minute intervals using a Spectramax 96-well spectrophotometer (Molecular Devices, Crawley, UK) at 37° C. CO gas saturated PBS (714 μM), was employed as a positive control.

[2] = CO release by HPLC analysis of breakdown of CO donor to its CO depleted form; format: physicochemical
Protocol: HPLC grade acetonitrile (CH3CN) was purchased from Merck Chemicals. MilliQ grade H2O was obtained from a Millipore purification system. HPLC grade trifluoroacetic acid (TFA) was purchased from Scharlau. HPLC analyses were conducted on an analytical RP-HPLC (Shimadzu LC-20AD equipped with an SPD-20A UV detector [210 and 254 nm]) using a Phenomenex Prodigy column (C-18, 5 μm, 3.00×250 mm) at 0.5 mL/min and heated to 40° C. Unless otherwise stated, the solvent system for all LC purposes was a mixture of A (0.05% TFA in H2O) and B (CH3CN). The method used was 10% to 100% B over 12.5 min, then 100% B for 2.5 min, unless otherwise stated.
In addition, the rate of CO release was measured in different physiological solutions at pH 7.4, 37° C.: phosphate buffered saline (PBS), Tris-sucrose buffer and UW solution using an amperiometric CO selective electrode (ISO-COP-2, World Precision Instruments (WPI), Inc, Sarasota, USA). The amount of CO released was recorded as the magnitude of electrode current generated on CO diffusion through a selective gas permeable membrane and oxidised to CO2 on the electrode. Current changes were recorded using a WPI TRB4100 4-channel free radical analyser with the poise potential set to 950 mV. […] The effect of pH upon the release of CO was assessed by adjusting the pH of Tris sucrose buffer to pH 6.6 using HCl and to pH 8.5 using NaOH. […]

[3] = oral bioavailability: blood carboxyhaemoglobin after oral gavage; format: in vivo, Sprague Dawley rats
Protocol: Male Sprague Dawley rats (300-320 g) were orally dosed with either oCOm-19 (133.33 μmol/kg) or oCOm-21 (33.33 μmol/kg) in ultra-pure water by oral gavage. Animals were observed every 15 minutes for any changes in behaviour or signs of distress. Tail vein blood samples were collected in heparinised capillary tubes immediately prior to and at 1-3 hours post CO-donor administration. Blood gas analysis on each sample was performed using a Radiometer ABL800 Flex analyser.

[4] = tested on: isolated rat aortic rings; experiment: isolated rat aortic ring vasorelaxation; parameters: species or system Lewis rats; settings: rings pre-contracted with phenylephrine; 37° C.; hydrochloride
Protocol: Transverse ring sections of aorta were isolated from male Lewis rats ([…], n=5-6 per group) under halothane anaesthesia and suspended under 2 g tension in an organ bath containing 10 mL of oxygenated (95% O2/5% CO2) Krebs Henseleit (KH) buffer containing 118 mM NaCl, 4.7 mM KCl, 1.2 mM KH2PO4, 1.2 mM MgSO4.7H2O, 22 mM NaHCO3, 11 mM glucose, 0.03 mM K^+ EDTA, and 2.5 mM CaCl2 as previously described.^43 Indomethacin (10 μM) was present in the buffer to exclude endogenous prostaglandins as potential modulators of vascular tone. Relaxation responses to oCOm-19 or oCOm-21 ([…]) were assessed using individual dosing in tissues pre-contracted with phenylephrine (0.1 μM). All results were subsequently expressed as a percentage of the maximal phenylephrine-induced contraction. Following repeat wash steps with Krebs Henseleit buffer, smooth muscle function and viability was confirmed by repeating the contractile response to phenylephrine. Aortic responses to individual EC50 concentrations of either CO donor in phenylephrine vasoconstricted rings were repeated separately, in the presence of the CO-chelator, myoglobin (5 μM) and the selective, irreversible inhibitor of sGC 1H-(1,2,4)oxadiazolo[4,3-a]quinoxalin-1-one, (ODQ, 10 μM), as previously described.^44

MDCK cells [5] = experiment: imaging of intracellular CO in living cells with fluorescent probe COP-1; format: cell-based, Canine; settings: 10-50 μM, 37° C. and 8° C., bis-trifluoroacetate Salt
Protocol: A palladium CO-responsive small-molecule fluorescent probe (COP-1) was synthesised and carbonylation of the probe by CO confirmed as previously described.^41 A final concentration of 2 nM of COP-1 was added to each well of a 96-well plate containing 200 μL of Mg^2+ and Ca^2+ free phosphate solution (DPS, 37° C.). CORM-2, oCOm-19 and oCOm-21 (1-100 μM) were added to wells in triplicate, and zeroed against an equivalent volume of vehicle control added to COP-1. Emission spectra (λ 400-600 nm) were recorded at regular time intervals for one hour using a Spectromax Gemini fluorescent plate reader (Molecular Devices, Crawley, UK) at 37° C., (λex 475 nm, and the λem500 nm measured).
The ability of the CO donors to increase intracellular levels of CO was tested in Madin Darby Canine Kidney (MDCK) cells. […] Cells were incubated for 1 hour at either 8 or 37° C. then 1 μM COP-1 in DPS added per well and cells incubated for a further 15 minutes. Cells were imaged on a fluorescent inverted microscope (Nikon Eclipse Ti-E).

MDCK cells [6] = tested on: MDCK cells
[7] = read-out: EC50 (μM), Active Compound

Structure (SMILES) | tissue viability by TTC (formazan) staining (in words) (cardiac tissue) | EC50 (MDCK cells [1]; [7]) [µM] | solubility (in words) (Solubility in water; water or physiological buffers) | Solubility in water at 21° C. (Solubility in water; water, 21° C.) [µg/mL] | carbonmonoxymyoglobin formation (in words) (horse heart myoglobin) | time by which 50% of the donor CO maximum release capacity was depleted [2] [min] | effect on circulating carboxyhaemoglobin (in words) ([3]; oCOm-19 and DB-13 133.3 μmol/kg, oCOm-21 33.3 μmol/kg, hydrochloride) | behaviour / signs of distress after oral dosing ([3]; observed every 15 minutes) | vasorelaxant response (in words) [4] | EC50 (MDCK cells [1]; read-out: EC50 (μM), Active Compound at 8° C.) [µM] | intracellular CO, COP-1 / BODIPY fluorescence (in words) (MDCK cells [5]) | cellular toxicity (in words) (MDCK cells [6])
CC12C(=O)C(C)(C(c3ccccc3)=C1c1ccccc1)C1C(=O)N(CCN)C(=O)C12.O=C(O)C(F)(F)F (centres unmarked) [DB-21, 2-(4,7-Dimethyl-1,3,8-trioxo-5,6-diphenyl-3a,4,7,7a-tetrahydro-1H-4,7-methanoisoindol-2(2H)-yl)ethanaminium 2,2,2-trifluoroacetate] | little staining was visible | – | – | – | – | – | – | – | – | – | – | –
CC12C(=O)C(C)(C(c3ccccc3)=C1c1ccccc1)C1(Br)C(=O)N(CCC(=O)NCCN)C(=O)C21.Cl (centres unmarked) [oCOm-19, N-(2-Aminoethyl)-3-(3a-bromo-4,7-dimethyl-1,3,8-trioxo-5,6-diphenyl-3a,4,7,7a-tetrahydro-1H-4,7-methanoisoindol-2(2H)-yl)propanamide hydrochloride] | – | 86 | water soluble | 3200 | time- and concentration-dependent increase in carbonmonoxymyoglobin formation | 40 | increase in circulating carboxyhaemoglobin | body pressing behaviour indicative of abdominal discomfort | reversible, concentration-dependent vasorelaxant responses; also recorded: reversible, concentration-dependent vasorelaxation; also recorded: vasorelaxant effects | – | – | –
CC12C(=O)C(C)(C(c3ccccc3)=C1c1ccccc1)C1(Br)C(=O)N(CCNCCN)C(=O)C21 (centres unmarked) [oCOm-23, 2-(2-(2-Aminoethyl)aminoethyl)-3a-bromo-3a,4,7,7a-tetrahydro-4,7-dimethyl-5,6-diphenyl-4,7-methano-1H-isoindole-1,3,8(2H)-trione bis-trifluoroacetate Salt] | – | 10.1 | – | – | – | 75 | – | – | – | > 200 | Increased BODIPY fluorescence intensity; also recorded: increased intracellular CO levels | increased toxicity

Reference: patent US11072584B2, “Carbon monoxide releasing norbornenone compounds” (OTAGO INNOVATION LIMITED, priority 2015, dated 2021)
